According to patent publication US20230017045A1, “PYRIDINE AND PYRIMIDINE CARBOXYLATE HERBICIDES AND METHODS OF USE THEREOF” (Dow AgroSciences LLC, priority 2017, published 2023):
Like-named read-outs stand apart in the source and are kept apart here.

Tests used:
test plant species = assay: Post-emergent herbicidal activity test (greenhouse, foliar spray, visual growth reduction); format: in vivo; settings: post-emergence, 336 h, 140 g ai/ha
Method in brief: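 Visual percent injury (0-100) rated 14 d after treatment, relative to nontreated and solvent-blank plants. Test plants at first or second true leaf stage received an overhead track-sprayer application at 187 L/ha. Compounds were formulated in aqueous acetone/DMSO carrier containing crop oil concentrate and X-77 surfactant.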

[1] = ECHCG: barnyardgrass (Echinochloa crus-galli), 14 days after application, read-out: Visual Growth Reduction (%) 14 Days After Application, ECHCG
[2] = IPOHE: ivy-leaf morning glory (Ipomoea hederacea), 14 days after application, read-out: Visual Growth Reduction (%) 14 Days After Application, IPOHE
[3] = KCHSC: kochia (Bassia scoparia), 14 days after application, read-out: Visual Growth Reduction (%) 14 Days After Application, KCHSC
[4] = ORYSA: rice (Oryza sativa), 14 days after application, read-out: Visual Growth Reduction (%) 14 Days After Application, ORYSA
[5] = SETFA: giant foxtail (Setaria faberi), 14 days after application, read-out: Visual Growth Reduction (%) 14 Days After Application, SETFA
[6] = SORVU: grain sorghum (Sorghum vulgare), 14 days after application, read-out: Visual Growth Reduction (%) 14 Days After Application, SORVU
[7] = STEME: common chickweed (Stellaria media), 14 days after application, read-out: Visual Growth Reduction (%) 14 Days After Application, STEME
[8] = TRZAS: wheat, spring (Triticum aestivum), 14 days after application, read-out: Visual Growth Reduction (%) 14 Days After Application, TRZAS
[9] = blackgrass (Alopecurus myosuroides), 14 Days After Application, read-out: Visual Growth Reduction (%) ALOMY
[10] = canada thistle (Cirsium arvense), 14 Days After Application, read-out: Visual Growth Reduction (%) CIRAR
[11] = crabgrass (Digitaria sanguinalis), 14 Days After Application, read-out: Visual Growth Reduction (%) DIGSA
[12] = lambsquarters (Chenopodium album), 14 Days After Application, read-out: Visual Growth Reduction (%) CHEAL
[13] = redroot pigweed (Amaranthus retroflexus), 14 Days After Application, read-out: Visual Growth Reduction (%) AMARE
[14] = wild oat (Avena fatua), 14 Days After Application, read-out: Visual Growth Reduction (%) AVEFA
[15] = yellow nutsedge (Cyperus esculentus), 14 Days After Application, read-out: Visual Growth Reduction (%) CYPES
[16] = ALOMY: blackgrass (Alopecurus myosuroides), 14 days after application, read-out: Visual Growth Reduction (%) 14 Days After Application, ALOMY
[17] = AMARE: redroot pigweed (Amaranthus retroflexus), 14 days after application, read-out: Visual Growth Reduction (%) 14 Days After Application, AMARE
[18] = AVEFA: wild oat (Avena fatua), 14 days after application, read-out: Visual Growth Reduction (%) 14 Days After Application, AVEFA
[19] = CHEAL: lambsquarters (Chenopodium album), 14 days after application, read-out: Visual Growth Reduction (%) 14 Days After Application, CHEAL
[20] = CIRAR: canada thistle (Cirsium arvense), 14 days after application, read-out: Visual Growth Reduction (%) 14 Days After Application, CIRAR
[21] = CYPES: yellow nutsedge (Cyperus esculentus), 14 days after application, read-out: Visual Growth Reduction (%) 14 Days After Application, CYPES
[22] = DIGSA: crabgrass (Digitaria sanguinalis), 14 days after application, read-out: Visual Growth Reduction (%) 14 Days After Application, DIGSA

Compound	melting point [°C]	pest or weed control at 140 g/ha (test plant species; [1]) [%]	pest or weed control at 140 g/ha (test plant species; [2]) [%]	pest or weed control at 140 g/ha (test plant species; [3]) [%]	pest or weed control at 140 g/ha (test plant species; [4]) [%]	pest or weed control at 140 g/ha (test plant species; [5]) [%]	pest or weed control at 140 g/ha (test plant species; [6]) [%]	pest or weed control at 140 g/ha (test plant species; [7]) [%]	pest or weed control at 140 g/ha (test plant species; [8]) [%]	pest or weed control at 140 g/ha (test plant species; [9]) [%]	pest or weed control at 140 g/ha (test plant species; [10]) [%]	pest or weed control at 140 g/ha (test plant species; [11]) [%]	pest or weed control at 140 g/ha (test plant species; [12]) [%]	pest or weed control at 140 g/ha (test plant species; [13]) [%]	pest or weed control at 140 g/ha (test plant species; [14]) [%]	pest or weed control at 140 g/ha (test plant species; [15]) [%]	pest or weed control at 140 g/ha (test plant species; [16]) [%]	pest or weed control at 140 g/ha (test plant species; [17]) [%]	pest or weed control at 140 g/ha (test plant species; [18]) [%]	pest or weed control at 140 g/ha (test plant species; [19]) [%]	other results
COC(=O)c1nc(-c2ccc(C(F)(F)F)nc2F)c(F)cc1Cl [F354, methyl 5-chloro-2′,3-difluoro-6′-(trifluoromethyl)-[2,3′-bipyridine]-6-carboxylate]	84 to 86	75 to 84	95 to 100	60 to 74	0 to 29	75 to 84	85 to 94	0 to 29	60 to 74	0 to 29	75 to 84	85 to 94	75 to 84	60 to 74	30 to 44	0 to 29	–	–	–	–	–
COC(=O)c1nc(-c2ccc(C(F)(F)F)cc2Cl)cc(C)c1Cl [F33, methyl 3-chloro-6-(2-chloro-4-(trifluoromethyl)phenyl)-4-methylpicolinate]	61 to 63	0 to 29	85 to 94	0 to 29	0 to 29	0 to 29	60 to 74	0 to 29	0 to 29	–	–	–	–	–	–	–	0 to 29	0 to 29	0 to 29	45 to 59	pest or weed control at 140 g/ha (test plant species; [20]): 45 to 59%; pest or weed control at 140 g/ha (test plant species; [21]): 0 to 29%; pest or weed control at 140 g/ha (test plant species; [22]): 30 to 44%
COc1ncc(Cl)cc1-c1ccc(Cl)c(C(=O)O)n1 [F134, 5,5′-Dichloro-2′-methoxy-[2,3′-bipyridine]-6-carboxylic acid]	155.2 to 163.3	0 to 29	0 to 29	0 to 29	0 to 29	0 to 29	0 to 29	0 to 29	0 to 29	–	–	–	–	–	–	–	0 to 29	0 to 29	0 to 29	0 to 29	pest or weed control at 140 g/ha (test plant species; [20]): 0 to 29%; pest or weed control at 140 g/ha (test plant species; [21]): 0 to 29%; pest or weed control at 140 g/ha (test plant species; [22]): 0 to 29%
COC(=O)c1nc(-c2ccc(S(C)(=O)=O)cc2F)c(F)cc1Cl [F379, Methyl 3-chloro-5-fluoro-6-(2-fluoro-4-(methylsulfonyl)phenyl)picolinate]	179 to 181	75 to 84	95 to 100	85 to 94	0 to 29	75 to 84	75 to 84	0 to 29	60 to 74	0 to 29	0 to 29	60 to 74	60 to 74	60 to 74	0 to 29	0 to 29	–	–	–	–	–
